Source: patent publication US20060008574A1, “Galactosyl isomalt, method for production and use thereof” (priority 2002, published 2006)

What was measured:
B. infantis DSM 20090 = experiment: Fermentation by human bifidobacteria; assay type: cell-based; design: key: −: no decomposition; +: decomposition and metabolization of galactose from β-1,3-galactosyl isomalt; ++: decomposition and metabolization of galactose and glucose from β-1,3-galactosyl isomalt; +++: complete decomposition of β-1,3-galcatosyl isomalt; details: medium 2, 48 h
Experimental: (§1) To investigate the prebiotic and bifidogenic properties of galactosyl isomalt, the growth of various human bifidobacteria was investigated on this substrate in vitro. An anaerobic medium of the following composition was used:
(§2) 22 strains of human bifidobacteria were first precultured in “Hungate” test tubes on the above medium 1, in which the source of carbohydrate had first been replaced by glucose (10 g/L). The strains were then inoculated onto medium 2, incubated for 48 h, and then the optical density (E578), the pH, the formation of acetate and lactate and the decrease of the β-1,3-galactosyl isomalt concentration were determined.
(§3) Various decomposition paths are distinguished with regard to the metabolization of galactosyl isomalt. Some strains degrade galactose from the substrate with a β-galactosidase and metabolize this monosaccharide (+).
(§4) Other strains additionally degrade glucose from the resulting isomalt, in addition to galactose, metabolize both monosaccharides, while this is not true for the resulting mannitol or sorbitol (++). The third group is capable of utilizing galactosyl isomalt as a substrate and also metabolizing mannitol and sorbitol (+++).

[1] = tested on: B. adolescentis DSM 20087; experiment: Fermentation by human bifidobacteria; assay type: cell-based; design: key: −: no decomposition; +: decomposition and metabolization of galactose from β-1,3-galactosyl isomalt; ++: decomposition and metabolization of galactose and glucose from β-1,3-galactosyl isomalt; +++: complete decomposition of β-1,3-galcatosyl isomalt; details: medium 2, 48 h
Experimental: as §1, §2, §3, §4

[2] = tested on: B. pseudocatenulatum DSM 20439; experiment: Fermentation by human bifidobacteria; assay type: cell-based; design: key: −: no decomposition; +: decomposition and metabolization of galactose from β-1,3-galactosyl isomalt; ++: decomposition and metabolization of galactose and glucose from β-1,3-galactosyl isomalt; +++: complete decomposition of β-1,3-galcatosyl isomalt; details: medium 2, 48 h
Experimental: as §1, §2, §3, §4

B. infantis DSM 20223 = experiment: Fermentation by human bifidobacteria; assay type: cell-based; design: key: −: no decomposition; +: decomposition and metabolization of galactose from β-1,3-galactosyl isomalt; ++: decomposition and metabolization of galactose and glucose from β-1,3-galactosyl isomalt; +++: complete decomposition of β-1,3-galcatosyl isomalt; details: medium 2, 48 h
Experimental: as §1, §2, §3, §4

B. gallicum DSM 20093 = experiment: Fermentation by human bifidobacteria; assay type: cell-based; design: key: −: no decomposition; +: decomposition and metabolization of galactose from β-1,3-galactosyl isomalt; ++: decomposition and metabolization of galactose and glucose from β-1,3-galactosyl isomalt; +++: complete decomposition of β-1,3-galcatosyl isomalt; details: medium 2, 48 h
Experimental: as §1, §2, §3, §4

B. longum DSM 20097 = experiment: Fermentation by human bifidobacteria; assay type: cell-based; design: key: −: no decomposition; +: decomposition and metabolization of galactose from β-1,3-galactosyl isomalt; ++: decomposition and metabolization of galactose and glucose from β-1,3-galactosyl isomalt; +++: complete decomposition of β-1,3-galcatosyl isomalt; details: medium 2, 48 h
Experimental: as §1, §2, §3, §4

B. catenulatum DSM 20224 = experiment: Fermentation by human bifidobacteria; assay type: cell-based; design: key: −: no decomposition; +: decomposition and metabolization of galactose from β-1,3-galactosyl isomalt; ++: decomposition and metabolization of galactose and glucose from β-1,3-galactosyl isomalt; +++: complete decomposition of β-1,3-galcatosyl isomalt; details: medium 2, 48 h
Experimental: as §1, §2, §3, §4

B. bifidum DSM 20239 = experiment: Fermentation by human bifidobacteria; assay type: cell-based; design: key: −: no decomposition; +: decomposition and metabolization of galactose from β-1,3-galactosyl isomalt; ++: decomposition and metabolization of galactose and glucose from β-1,3-galactosyl isomalt; +++: complete decomposition of β-1,3-galcatosyl isomalt; details: medium 2, 48 h
Experimental: as §1, §2, §3, §4

B. breve DSM 20213 = experiment: Fermentation by human bifidobacteria; assay type: cell-based; design: key: −: no decomposition; +: decomposition and metabolization of galactose from β-1,3-galactosyl isomalt; ++: decomposition and metabolization of galactose and glucose from β-1,3-galactosyl isomalt; +++: complete decomposition of β-1,3-galcatosyl isomalt; details: medium 2, 48 h
Experimental: as §1, §2, §3, §4

B. breve DSM 20091 = experiment: Fermentation by human bifidobacteria; assay type: cell-based; design: key: −: no decomposition; +: decomposition and metabolization of galactose from β-1,3-galactosyl isomalt; ++: decomposition and metabolization of galactose and glucose from β-1,3-galactosyl isomalt; +++: complete decomposition of β-1,3-galcatosyl isomalt; details: medium 2, 48 h
Experimental: as §1, §2, §3, §4

[3] = tested on: B. adolescentis DSM 20086; experiment: Fermentation by human bifidobacteria; assay type: cell-based; design: key: −: no decomposition; +: decomposition and metabolization of galactose from β-1,3-galactosyl isomalt; ++: decomposition and metabolization of galactose and glucose from β-1,3-galactosyl isomalt; +++: complete decomposition of β-1,3-galcatosyl isomalt; details: medium 2, 48 h
Experimental: as §1, §2, §3, §4

B. longum DSM 20219 = experiment: Fermentation by human bifidobacteria; assay type: cell-based; design: key: −: no decomposition; +: decomposition and metabolization of galactose from β-1,3-galactosyl isomalt; ++: decomposition and metabolization of galactose and glucose from β-1,3-galactosyl isomalt; +++: complete decomposition of β-1,3-galcatosyl isomalt; details: medium 2, 48 h
Experimental: as §1, §2, §3, §4

B. angulatum DSM 20098 = experiment: Fermentation by human bifidobacteria; assay type: cell-based; design: key: −: no decomposition; +: decomposition and metabolization of galactose from β-1,3-galactosyl isomalt; ++: decomposition and metabolization of galactose and glucose from β-1,3-galactosyl isomalt; +++: complete decomposition of β-1,3-galcatosyl isomalt; details: medium 2, 48 h
Experimental: as §1, §2, §3, §4

B. infantis DSM 20088 = experiment: Fermentation by human bifidobacteria; assay type: cell-based; design: key: −: no decomposition; +: decomposition and metabolization of galactose from β-1,3-galactosyl isomalt; ++: decomposition and metabolization of galactose and glucose from β-1,3-galactosyl isomalt; +++: complete decomposition of β-1,3-galcatosyl isomalt; details: medium 2, 48 h
Experimental: as §1, §2, §3, §4

[4] = tested on: glucoamylase/maltase (GM complex); experiment: Stability with respect to small intestine α-glucosidases: glucoamylase/maltase; details: 120 min incubation
Experimental: Solution 1: 0.1 mol/L triethanolamine (TEA) buffer, pH 7.0
Solution 6: 1% solution of maltose in solution 1
Solution 7: 1% solution of sucrose in solution 1
Solution 8: 1% solution of isomalt in solution 1
Solution 9: 1% solution of isomaltulose in solution 1
Solution 11: Glucoamylase/maltase enzyme complex in solution 1
i) 0.7 unit of the enzyme complex saccharase/isomaltase (solution 10) or glucoamylase/maltase (solution 11) was added in each case to 1.0 mL of a carbohydrate solution heated to 37° C. (solution 2 to solution 8), mixed and incubated at 37° C.
ii) For incubation under more severe conditions, 16 units of the enzyme complex saccharase/isomaltase or 13 units of the enzyme complex glucoamylase/maltase were used. The reaction was stopped after 2 h by heating to 95° C. for 15 min. The resulting monosaccharides and the undegraded saccharides of the relevant batches were quantitatively determined by HPAEC.

lactase = experiment: Stability with respect to lactase; assay type: in vitro ADME; details: 0.9 unit lactase, 1% solution, 37° C., 6 h
Text: The enzyme lactase that is present at the mucosa in the small intestine serves in vivo to break down lactose that gets into the small intestine and the resulting monosaccharides are absorbed into the bloodstream through the intestinal wall.
The enzyme lactase is isolated in a modified method of Wallenfels, K., and Fischer, J. (Z. Physiologische Chemie 321 (1960) 223).
Solutions 1-5: see Example 8c)
Solution 6: 1% solution of lactose in solution 1
Solution 7: 1% solution of isomalt in solution 1
Solution 8: Lactase in solution 1
(solutions 2-7), mixed and incubated at 37° C. The reaction is stopped after 6 h by heating to 95° C. for 15 min.

## OCC1O[C@H](OC[C@@H](O)[C@@H](O)[C@H](O)C(O)CO)C(O)C(O[C@@H]2OC(CO)[C@H](O)C(O)C2O)[C@@H]1O (mixture of isomers) [β-1,3-Galactosyl isomalt, β-D-galactosyl-(1→3)-α-D-glucosyl-(1→6)-D-sorbitol(β-1,3-galactosyl-1,6-GPS) and β-D-galactosyl-(1→3)-α-D-glucosyl-(1→1)-D-mannitol(β-1,3-galactosyl-1,1-GPM)]
B. infantis DSM 20090
  Growth on β-1,3-galactosyl isomalt: ++
[1]
  Growth on β-1,3-galactosyl isomalt: +++
[2]
  Growth on β-1,3-galactosyl isomalt: ++
B. infantis DSM 20223
  Growth on β-1,3-galactosyl isomalt: +++
B. gallicum DSM 20093
  Growth on β-1,3-galactosyl isomalt: −
B. longum DSM 20097
  Growth on β-1,3-galactosyl isomalt: ++
B. catenulatum DSM 20224
  Growth on β-1,3-galactosyl isomalt: ++
B. bifidum DSM 20239
  Growth on β-1,3-galactosyl isomalt: +
B. breve DSM 20213
  Growth on β-1,3-galactosyl isomalt: +
B. breve DSM 20091
  Growth on β-1,3-galactosyl isomalt: +
[3]
  Growth on β-1,3-galactosyl isomalt: +++
B. longum DSM 20219
  Growth on β-1,3-galactosyl isomalt: +++
B. angulatum DSM 20098
  Growth on β-1,3-galactosyl isomalt: ++
B. infantis DSM 20088
  Growth on β-1,3-galactosyl isomalt: ++
[4]; More stringent (13 units)
  Hydrolysis rate [%]: 0%
[4]; Standard (0.7 unit), 37° C., pH 7.0
  Hydrolysis rate [%]: 0%
lactase
  Hydrolysis rate [%], incubation with lactase: 4.8%
